Several values for one entry are separate records, joined by “and”; a condition that tells them apart may be missing. Equal entries are not always repeated. Where two headings read alike, the source gives them in different places.
Tests used:
[1] = test system: HDMB03 (HDMBO3) group 3 medulloblastoma cells; test: CellTiter-Glo dose-response growth assay; format: cell-based; details: HDMBO3 G3MB cell growth; read-out: IC50 (nM) HDMBO3
Experimental: CellTiter-Glo assay was performed as per the manufacturer’s instructions, at the noted timepoint after compound treatment or plating. For Kelly, TE617T, RhJT, NCIH2122, NCIH650 and 143B, 500 cells were plated in normal growth media per well in a 384-well plate (Corning). HDMB03 and MB002 cells were plated in growth media at 500 cells/well in a 384-well plate. […] Cells were incubated for the noted timepoints prior to performing CellTiter-Glo assay as per the manufacturer’s instructions, and reading plates on an Envision 2104 microplate reader.

[2] = target: T1, EP300 bromodomain (Homo sapiens, UniProt Q09472); test: Differential scanning fluorimetry (DSF) thermal shift; format: binding; details: DSF
T1 construct: 6xHis (cleaved yes); host or cells: E. coli BL21 (DE3) RIL
T1 sequence (Q09472 1048-1161): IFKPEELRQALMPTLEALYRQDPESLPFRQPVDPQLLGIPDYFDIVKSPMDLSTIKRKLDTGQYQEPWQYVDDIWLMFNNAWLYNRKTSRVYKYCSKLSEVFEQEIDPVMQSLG
Experimental: (§1) At OD600 of 0.6, the culture was cooled down to 18 °C and induced with 0.1 mM IPTG. After 18 h growth, the culture was harvested by centrifugation at 6000 × g for 25 min and stored at -80 °C. Harvested cell pellets were re-suspended in 50 mM Na/K phosphate buffer (pH 7.4) containing 100 mM NaCl, 40 mM imidazole, 0.01% w/v lysozyme and 0.01% v/v Triton X-100 at 4 °C for 1 h, subjected to sonication and the lysate was clarified by centrifugation (30,000 × g for 45 min at 4 °C). Proteins were purified by FPLC at 4 °C using columns and chromatography materials from GE Healthcare. […] Proteins were purified to homogeneity by size exclusion chromatography using Superdex 75 equilibrated with elution buffer (50 mM HEPES pH 7.5, 100 mM NaCl, 2 mM DTT). All BRDs eluted as monomeric protein and were of crystallization grade quality (>95% purity as judged by SDS-PAGE). Pool fractions were combined, concentrated to 10–12 mg/ml, and aliquots were flash-frozen in liquid N2 and stored at −80 °C.
(§2) DSF experiments were performed with an Applied Biosystem StepOnePlus real-time PCR system (Thermo Fisher Scientific) using 96-well format plates, assayed in quadruplicate. For thermal shift determination, 5 μM protein was mixed with 100 μM compound in 50 mM HEPES, pH 7.5, 150 mM NaCl, 2 mM DTT, 2% DMSO, 5X SYPRO Orange (Thermo Fisher Scientific) in 20 μL reaction volumes. Reaction mixtures were heated from 25 to 95 °C at 1 °C/min with fluorescence readings every 0.5 °C at 610 nm. The observed thermal shift (ΔTm) was recorded as the difference between the Tm of sample and DMSO reference wells.

[3] = target: T2, BRD4-BD1 (BRD4-1) (Homo sapiens, UniProt O60885); test: as above; format: binding; details: DSF; for ∆Tm (°C) BRD4-1: 5 μM protein, 100 μM compound, three independent experiments, average ± SD
T2 construct: BRD4-BD1 (residues 44-168); 6xHis (cleaved yes); host or cells: E. coli BL21 (DE3) RIL
Experimental: as §1, §2

[4] = target: GFP-tagged CBP bromodomain (Homo sapiens, UniProt Q92793); test: Microscale thermophoresis (MST); format: binding; details: for Response (Dose Response Curve): MST raw response
Chain of GFP-tagged CBP bromodomain (Q92793 1085-1192 limits assumed): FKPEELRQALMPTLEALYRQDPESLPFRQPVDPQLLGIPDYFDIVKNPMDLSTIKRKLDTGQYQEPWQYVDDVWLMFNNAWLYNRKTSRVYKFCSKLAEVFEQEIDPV
Experimental: MST experiments were performed in a Monolith NT.115 Pico instrument (NanoTemper Technologies) following published procedures. […] MST traces were recorded using standard parameters: 5 s MST power off, 30 s MST power on and 5 s MST power off. Measurements were taken at -1-0 s (cold region) and 10 s (hot region) and data were analyzed using the NTAnalysis software.

[5] = test system: CBP bromodomain; test: Differential scanning fluorimetry (DSF) thermal shift; format: binding; details: ΔTm (CBP)/ΔTm(BRD4)
Experimental: as §1, with “After” for “At OD600 of 0.6, the culture was cooled down to 18 °C and induced with 0.1 mM IPTG. After”, “All BRDs eluted as monomeric protein and were of crystallization grade quality (>95% purity as judged by SDS-PAGE).” left out
(§3) DSF experiments were performed with an Applied Biosystem StepOnePlus real-time PCR system (Thermo Fisher Scientific) using 96-well format plates, assayed in quadruplicate. For thermal shift determination, 5 μM protein was mixed with 100 μM compound in 50 mM HEPES, pH 7.5, 150 mM NaCl, 2 mM DTT, 2% DMSO, 5X SYPRO Orange (Thermo Fisher Scientific) in 20 μL reaction volumes.

[6] = target: T3, CBP bromodomain (Homo sapiens, UniProt Q92793); test: as above; format: binding; details: for ∆Tm (°C) CBP / ΔTm (°C) CBP: DSF; for ∆Tm (°C) CBP: 5 μM protein, 100 μM compound, three independent experiments, average ± SD
T3 construct: CBP (residues 1081-1197); 6xHis (cleaved yes); host or cells: E. coli BL21 (DE3) RIL
T3 sequence (Q92793 1081-1197): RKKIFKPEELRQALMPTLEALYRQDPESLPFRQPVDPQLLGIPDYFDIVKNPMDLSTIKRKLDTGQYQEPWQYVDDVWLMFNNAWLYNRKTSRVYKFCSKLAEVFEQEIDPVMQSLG
Experimental: as §1, with “After” for “At OD600 of 0.6, the culture was cooled down to 18 °C and induced with 0.1 mM IPTG. After”, “All BRDs eluted as monomeric protein and were of crystallization grade quality (>95% purity as judged by SDS-PAGE).” left out
as §3

COC1CCC(n2c(C3CCCC(=O)N3c3cccc(C(F)F)c3)nc3cc(-c4c(C)noc4C)ccc32)CC1 (centres unmarked) [Compound 3]
IC50 [1]: 156 ± 63 nM
∆Tm (°C) EP300 ([2]; 5 μM protein, 100 μM compound, three independent experiments, average ± SD): 15.2 ± 0.43 °C
ΔTm (°C) EP300 ([2]; Figure 3B, EP300): 15.2 °C
∆Tm (°C) BRD4-1 [3]: 5.6 ± 0.18 °C
∆Tm (°C) BRD4-1 ([3]; listed as iCBP-1): 5.6 °C
ΔTm (°C) BRD4-BD1 ([3]; Figure 3A, BRD4-BD1): 5.6 °C
Response (Dose Response Curve) ([4]; Dose 7.6294e-11, single replicate run, listed as iCBP-1): 853.223 and 857.66 and 855.66
Response (Dose Response Curve) ([4]; Dose 1.52588e-10, single replicate run, listed as iCBP-1): 855.736 and 856.23 and 855.826
Response (Dose Response Curve) ([4]; Dose 3.05176e-10, single replicate run, listed as iCBP-1): 853.445 and 855.178 and 855.494
Response (Dose Response Curve) ([4]; Dose 6.10352e-10, single replicate run, listed as iCBP-1): 856.427 and 856.757 and 853.917
Response (Dose Response Curve) ([4]; Dose 1.2207e-9, single replicate run, listed as iCBP-1): 856.018 and 857.281 and 855.418
Response (Dose Response Curve) ([4]; Dose 2.44141e-9, single replicate run, listed as iCBP-1): 854.643 and 857.895 and 854.619
Response (Dose Response Curve) ([4]; Dose 4.88281e-9, single replicate run, listed as iCBP-1): 855.403 and 855.962 and 856.044
Response (Dose Response Curve) ([4]; Dose 9.76563e-9, single replicate run, listed as iCBP-1): 854.71 and 855.519 and 854.572
Response (Dose Response Curve) ([4]; Dose 1.95313e-8, single replicate run, listed as iCBP-1): 854.478 and 856.32 and 852.68
Response (Dose Response Curve) ([4]; Dose 3.90625e-8, single replicate run, listed as iCBP-1): 853.805 and 853.804 and 852.557
Response (Dose Response Curve) ([4]; Dose 7.8125e-8, single replicate run, listed as iCBP-1): 851.041 and 853.265 and 851.047
Response (Dose Response Curve) ([4]; Dose 1.5625e-7, single replicate run, listed as iCBP-1): 849.783 and 852.179 and 850.016
Response (Dose Response Curve) ([4]; Dose 3.125e-7, single replicate run, listed as iCBP-1): 847.514 and 851.349 and 849.816
Response (Dose Response Curve) ([4]; Dose 6.25e-7, single replicate run, listed as iCBP-1): 850.56 and 852.488 and 847.121
Response (Dose Response Curve) ([4]; Dose 1.25e-6, single replicate run, listed as iCBP-1): 851.062 and 851.994 and 849.472
Response (Dose Response Curve) ([4]; Dose 2.5e-6, single replicate run, listed as iCBP-1): 852.183 and 853.073 and 851.642
Kd ([4]; MST, single replicate run, target clGFP-CBPBRD, TargetConcentration 5e-8, MST-Power Medium, unit inferred, listed as iCBP-1, read-out: Kd (Fit Results, Fit Model: Kd)): 11.6 nM and 7.49 nM and 11.5 nM
Bound (Fit Results) ([4]; fitted MST response of bound state, single replicate run, target clGFP-CBPBRD 5e-8, listed as iCBP-1): 850.224 and 852.177 and 849.456
Unbound (Fit Results) ([4]; fitted MST response of unbound state, single replicate run, target clGFP-CBPBRD 5e-8, listed as iCBP-1): 855.236 and 856.83 and 855.351
Kd ([4]; three independent MST experiments, average ± SD, read-out: Kd (nM) CBP): 12.1 ± 4.9 nM
Ratio CBP/BRD4 of ∆Tm [5]: 2.8
∆Tm (°C) CBP [6]: 15.7 ± 0.13 °C
∆Tm (°C) CBP ([6]; listed as iCBP-1): 15.7 °C
ΔTm (°C) CBP ([6]; Figure 3A, CBP bromodomain): 15.7 °C
ΔTm (°C) CBP ([6]; Figure 3B, CBP): 15.7 °C
DSF ΔTm (°C) ([6]; Figure 3C, DSF (values equal CBP column)): 15.7 °C

— PMC11045757, “Group 3 medulloblastoma transcriptional networks collapse under domain specific EP300/CBP inhibition” (Nature Communications, 2024)
